From patent publication US20220031605A1, “TARGETED DRUG DELIVERY SYSTEM TO BE USED IN TREATING OSTEOMYELITIS” (EGE UNIVERSITESI, priority 2018, published 2022)

Test system: Staphylococcus Aureus
Test: In vivo osteomyelitis model (Staphylococcus Aureus injected to proximal tibia), radiograph and hematological analysis
Parameters: species or system Wistar albino rats
Settings: rat osteomyelitis model
Description: Wistar albino rats were operated on, and osteomyelitis model was established by injecting Staphylococcus Aureus pathogen to the proximal tibia. In order to determined that the osteomyelitis model was formed, Xray (Radiograph) image was taken. The animals that were determined to have osteomyelitis, were separated into 3 groups, as the gelatin nanoparticle comprising gentamicin (I), free drug (II) and control (III) groups, and they were included in the treatment with 2-4 injections a weak. 100-300 μl, gelatin nanoparticle comprising gentamicin, free form (commercial gentamicin and physiological saline solution was injected intravenously into the tail vein of the groups I, II, and III respectively. On the 14th day following the commencement of treatment, a radiograph was taken in order to track the treatment process. Hematological analysis was carried out during the treatment and after the treatment. The lymphocyte reference range for rats was 1.4-9.4×10^3/μL. As a result of the haemogram carried out on healthy rats, the lymphocyte value was 7.4×10^3/μL.

## gentamicin [Free gentamicin]
intravenous, tail vein, after 6 doses, reference range 1.4-9.4, healthy rats 7.4
  Lymphocyte number following 6 dose stherapy: 12.6 10^3/μL
Radiograph following 6 doses of therapy, compared with image 14 days after model establishment
  Radiograph finding after therapy: abscess was present, bone integrity was not yet formed and healing was only present on the periost
